Laboratory results taken from article PMC8248988, “A signal capture and proofreading mechanism for the KDEL-receptor explains selectivity and dynamic range in ER retrieval” (eLife, 2021).

Test system: endogenous KDEL receptor in COS-7 cells
Assay: ER retrieval assay, endogenous KDEL receptor redistribution
Assay type: cell-based, African green monkey
Source text: Figure 1. ER retrieval signal abundance and affinity are not correlated. (a) Sequence logos for ER resident proteins with C-terminal KDEL retrieval signals and variants thereof calculated using frequency or protein abundance ([Itzhak et al., 2017]; [Itzhak et al., 2016]). (b) Combined cellular concentrations of ER resident proteins with canonical KDEL, RDEL, and HDEL retrieval sequences in HeLa cells and mouse brain. (c) Competition binding assays for [^3H]-TAEHDEL and unlabelled TAEKDEL, TAERDEL, and TAEHDEL to the KDEL receptor. IC50 values for the competing peptides were used to calculate the apparent KDwith the Cheng-Prusoff equation ([Cheng and Prusoff, 1973]). (d) Endogenous KDEL receptor redistribution was measured in COS-7 cells in the absence (-ligand) or presence of K/R/H/A/DDEL (mScarlet-xDEL^sec). TGN46 was used as a Golgi marker. Scale bar is 10 µm. (e) The mean difference for K/R/H/A/DDEL comparisons against the shared no ligand control are shown as Cummings estimation plots. The individual data points for the fraction of KDEL receptor fluorescence in the Golgi are plotted on the upper axes with sample sizes and p values. Figure 1—source data 1. Source data for the ligand-induced KDELR receptor retrieval assays in Figure 1e. Figure 1—figure supplement 1. […] Endogenous ER chaperone secretion was measured by western blotting after challenge with different retrieval signals, and plotted as a bar graph showing mean ± SEM (n = 3). […] (a) Distribution of human KDELR1 and (b) KDELR2 was measured in COS-7 cells in the absence (-ligand) or presence of K/R/H/A/DDEL retrieval signals (K/R/H/A/DDEL^sec). […] The fraction of KDEL receptor localised to the Golgi was measured before (no ligand) and after challenge with different retrieval signals as indicated. […]
To create KDELR1-GFP and KDELR2-GFP, the reading frames for Homo sapiens KDELR1 (Uniprot: P24390) and KDELR2 (Uniprot: P33947) were cloned into the pEF5/FRT low level mammalian expression vector with a C-terminal 20 amino acid linker made up of 5 copies of Gly-Ser-Ser-Ser followed by GFP. […]

## ADEL [pcDNA3.1 hGHss-mScarlet-H. sapiens BiP639-654K651A (ADEL^SEC), secreted mScarlet fusion with human BiP C-terminus, ADEL signal]
COS-7 cells
  localisation of the mScarlet ligand (in words): predominantly Golgi and punctate localisation consistent with secretion
COS-7 cells expressing mScarlet-xDEL^sec
  endogenous KDEL receptor redistribution from Golgi to ER (in words): little effect on the Golgi-ER distribution of the receptor
